SMILES strings stand for the structures.

A short description of this series: log P by HPLC. The format is physicochemical. To be noted: EEC directive 79/831 Annex V. A8 by HPLC (gradient method, acetonitrile/0.1% aqueous phosphoric acid).
In turn, `CCN(Cc1ccco1)c1c(-c2c(F)cccc2F)c(Cl)nc2nc(C)nn12` [compound 340] yielded a logP of 3.28.
Then `CCN(CC1CCCO1)c1c(-c2c(F)cccc2F)c(Cl)nc2nc(C)nn12` (stereo not drawn) [compound 341], with 3; and `CCN(CCOC)c1c(-c2c(F)cccc2F)c(Cl)nc2nc(C)nn12` [compound 342], with 2.74; and `CCOC(=O)CN(CC)c1c(-c2c(F)cccc2F)c(Cl)nc2nc(C)nn12` [compound 343], with 2.85.
Then `CCCCN(CC)c1c(-c2c(F)cccc2F)c(Cl)nc2nc(C)nn12` [compound 344], with 3.82.
Consider `CCCN(CC1CC1)c1c(-c2c(F)cccc2F)c(Cl)nc2nc(C)nn12` [compound 345], for which the logP came to 3.83.
Then `CCCN(CC1CCCCO1)c1c(-c2c(F)cccc2F)c(Cl)nc2nc(C)nn12` (stereo not drawn) [compound 346], with 3.95.
The compound `CCCN(CC1CCCO1)c1c(-c2c(F)cccc2F)c(Cl)nc2nc(C)nn12` (stereo not drawn) [compound 347] had a logP of 3.39.
Then `CCCN(CCOC)c1c(-c2c(F)cccc2F)c(Cl)nc2nc(C)nn12` [compound 348], with 3.12.
Then `Cc1nc2nc(Cl)c(-c3ccc(F)cc3F)c(NC3CCCC(C(F)(F)F)C3)n2n1` (stereo not drawn) [compound 349], with 3.52; and `Cc1nc2nc(Cl)c(-c3ccc(F)cc3F)c(N(C)CCN(C)C)n2n1` [compound 350], with 1.23; and `C#CCN(C)c1c(-c2ccc(F)cc2F)c(Cl)nc2nc(C)nn12` [compound 351], with 2.67.
The value for `COCCN(C)c1c(-c2ccc(F)cc2F)c(Cl)nc2nc(C)nn12` [compound 352] was 2.58; that for `CCN(CCN(C)C)c1c(-c2ccc(F)cc2F)c(Cl)nc2nc(C)nn12` [compound 353] was 1.37.
`CCN(Cc1ccco1)c1c(-c2ccc(F)cc2F)c(Cl)nc2nc(C)nn12` [compound 354] displayed a logP of 3.39.
The value for `CCOC(=O)CN(CC)c1c(-c2ccc(F)cc2F)c(Cl)nc2nc(C)nn12` [compound 355] was 3.04.
The value for `CCCN(CC1CC1)c1c(-c2ccc(F)cc2F)c(Cl)nc2nc(C)nn12` [compound 356] was 3.91; that for `CCCN(CC1CCCO1)c1c(-c2ccc(F)cc2F)c(Cl)nc2nc(C)nn12` (stereo not drawn) [compound 357] was 3.6.
Then `CC(Nc1c(-c2ccc(F)cc2F)c(Cl)nc2nc(C(F)(F)F)nn12)C(F)(F)F` (stereo not drawn) [compound 358], with 3.89.
As to `Cc1nc2nc(Cl)c(-c3ccccc3F)c(NOCC(C)C)n2n1` [compound 361], the logP was 2.98.
The value for `CCONc1c(-c2ccccc2F)c(Cl)nc2nc(C)nn12` [compound 362] was 2.28.
Then `Cc1nc2nc(Cl)c(-c3ccccc3F)c(NOCc3ccccc3)n2n1` [compound 363], with 2.93.
Then `Cc1nc2nc(Cl)c(-c3ccccc3F)c(NOCc3cc(Cl)cc(Cl)c3)n2n1` [compound 364], with 3.76; and `Cc1nc2nc(Cl)c(-c3ccccc3F)c(NOCc3ccc(C(F)(F)F)cc3)n2n1` [compound 365], with 3.43.
The compound `Cc1nc2nc(Cl)c(-c3ccccc3F)c(NOCc3ccccc3Cl)n2n1` [compound 366] displayed a logP of 3.21.
The value for `Cc1nc2nc(Cl)c(-c3ccccc3F)c(NOCc3cccc(Cl)c3)n2n1` [compound 367] was 3.28.
The value for `Cc1nc2nc(Cl)c(-c3ccccc3F)c(NOCc3ccc(Cl)cc3)n2n1` [compound 368] was 3.3; that for `Cc1nc2nc(Cl)c(-c3ccccc3F)c(NOCc3ccc(F)cc3)n2n1` [compound 369] was 2.98.
Then `CCC(C)ONc1c(-c2ccccc2F)c(Cl)nc2nc(C)nn12` (stereo not drawn) [compound 370], with 2.87.
`Cc1nc2nc(Cl)c(-c3ccccc3F)c(NOCc3cccc(C(F)(F)F)c3)n2n1` [compound 371] showed a logP of 3.38.
The compound `CCCCONc1c(-c2ccccc2F)c(Cl)nc2nc(C)nn12` [compound 372] came in with a logP of 2.98.
As to `C=CCONc1c(-c2ccccc2F)c(Cl)nc2nc(C)nn12` [compound 373], the logP is recorded as 2.42.
With `Cc1nc2nc(Cl)c(-c3ccccc3F)c(NOC(C)(C)C)n2n1` [compound 374], the logP was 2.75.
Then `Cc1nc2nc(Cl)c(-c3ccccc3F)c(NOC3CCCCO3)n2n1` (stereo not drawn) [compound 375], with 2.59.
As for `CONc1c(-c2ccccc2F)c(Cl)nc2nc(C)nn12` [compound 376], the logP stood at 2.03.
Then `CON(C)c1c(-c2ccccc2F)c(Cl)nc2nc(C)nn12` [compound 377], with 2.5; and `Cc1nc2nc(Cl)c(-c3ccccc3F)c(NOC(C)C)n2n1` [compound 378], with 2.54; and `Cc1nc2nc(Cl)c(-c3c(F)cc(F)cc3F)c(NC(C)C3CC3)n2n1` (stereo not drawn) [compound 379], with 3.09.
Then `CCN(CC(F)(F)F)c1c(-c2c(F)cc(F)cc2F)c(Cl)nc2nc(C)nn12` [compound 380], with 3.42; and `Cc1nc2nc(Cl)c(-c3ccccc3F)c(N(C)C)n2n1` [compound 381], with 2.34.
The value for `Cc1nc2nc(Cl)c(-c3ccccc3F)c(N3CC(C)OC(C)C3)n2n1` (stereo not drawn) [compound 382] was 2.8; that for `CCNc1c(-c2ccccc2F)c(Cl)nc2nc(C)nn12` [compound 383] was 2.3; that for `Cc1nc2nc(Cl)c(-c3ccccc3F)c(N3CCCCC3)n2n1` [compound 384] was 3.19.
In turn, `Cc1nc2nc(Cl)c(-c3ccccc3F)c(NC3CCCC3)n2n1` [compound 385] showed a logP of 3.11.
`Cc1nc2nc(Cl)c(-c3ccccc3F)c(NC(C)C)n2n1` [compound 386] registered a logP of 2.63.
The value for `CCN(CC)c1c(-c2ccccc2F)c(Cl)nc2nc(C)nn12` [compound 387] was 2.95; that for `Cc1nc2nc(Cl)c(-c3ccccc3F)c(N3CCOCC3)n2n1` [compound 388] was 2.16; that for `CNc1c(-c2ccccc2F)c(Cl)nc2nc(C)nn12` [compound 389] was 2.02.
The value for `Cc1nc2nc(Cl)c(-c3ccccc3F)c(NC3CC3)n2n1` [compound 390] was 2.41; that for `Cc1nc2nc(Cl)c(-c3ccccc3F)c(NCC(F)(F)F)n2n1` [compound 391] was 2.53; that for `Cc1nc2nc(Cl)c(-c3ccccc3F)c(N3CCC(C(F)(F)F)CC3)n2n1` [compound 392] was 3.37.
Then `Cc1nc2nc(Cl)c(-c3ccccc3F)c(NCC3CC3)n2n1` [compound 393], with 2.72.
For `C=C(C)CNc1c(-c2ccccc2F)c(Cl)nc2nc(C)nn12` [compound 394], the logP was determined as 2.68.
The value for `Cc1nc2nc(Cl)c(-c3ccccc3F)c(NCCC(F)(F)F)n2n1` [compound 395] was 2.7; that for `Cc1nc2nc(Cl)c(-c3ccccc3F)c(NC(C)C3CCCCC3)n2n1` (stereo not drawn) [compound 396] was 4.16; that for `Cc1nc2nc(Cl)c(-c3ccccc3F)c(NC3CCCCC3)n2n1` [compound 397] was 3.43.
The value for `Cc1nc2nc(Cl)c(-c3ccccc3F)c(NC3CCCCC3C(F)(F)F)n2n1` (stereo not drawn) [compound 398] was 3.49; that for `Cc1nc2nc(Cl)c(-c3ccccc3F)c(NC3CC(C(F)(F)F)CC(C(F)(F)F)C3)n2n1` (stereo not drawn) [compound 399] was 3.73; that for `Cc1nc2nc(Cl)c(-c3ccccc3F)c(NC3CCC(C(F)(F)F)CC3)n2n1` (stereo not drawn) [compound 400] was 3.48.
`Cc1nc2nc(Cl)c(-c3ccccc3Cl)c(N3CCCCC3C)n2n1` (stereo not drawn) [compound 401] registered a logP of 3.91.
In turn, `Cc1nc2nc(Cl)c(-c3ccccc3Cl)c(N3CCC(F)CC3)n2n1` [compound 402] came in with a logP of 3.05.
Then `Cc1nc2nc(Cl)c(-c3ccccc3Cl)c(NCC#N)n2n1` [compound 403], with 2.03; and `CCN(Cc1ccco1)c1c(-c2ccccc2Cl)c(Cl)nc2nc(C)nn12` [compound 404], with 3.56.
Then `Cc1nc2nc(Cl)c(-c3ccc(F)cc3F)c(NC3CCCC3)n2n1` [compound 405], with 3.24.
On to `Cc1nc2nc(Cl)c(-c3ccc(F)cc3F)c(NCC(F)(F)F)n2n1` [compound 406], for which the logP amounted to 2.68.
Regarding `CC(=O)CC(C)(C)Nc1c(-c2ccc(F)cc2F)c(Cl)nc2nc(C)nn12` [compound 407], the logP worked out at 2.53.
Compound `Cc1nc2nc(Cl)c(-c3ccc(F)cc3F)c(NC3CCCCC3C(F)(F)F)n2n1` (stereo not drawn) [compound 408] returned a logP of 3.56.
Then `Cc1nc2nc(Cl)c(-c3ccc(F)cc3F)c(NC3CCC(C(F)(F)F)CC3)n2n1` (stereo not drawn) [compound 409], with 3.56; and `CCOC(=O)CN(C)c1c(-c2ccc(F)cc2F)c(Cl)nc2nc(C)nn12` [compound 410], with 2.8; and `Cc1nc2nc(Cl)c(-c3ccc(F)cc3F)c(N(C)CCC#N)n2n1` [compound 411], with 2.34.
The value for `Cc1nc2nc(Cl)c(-c3ccc(F)cc3F)c(N(C)CC#N)n2n1` [compound 412] was 2.34; that for `CCN(CCC#N)c1c(-c2ccc(F)cc2F)c(Cl)nc2nc(C)nn12` [compound 413] was 2.58.
Then `CCOC(=O)CN(c1c(-c2ccc(F)cc2F)c(Cl)nc2nc(C)nn12)C1CC1` [compound 414], with 3.29.
`Cc1nc2nc(Cl)c(-c3ccc(F)cc3F)c(N3CCC(O)C3)n2n1` (stereo not drawn) [compound 415] displayed a logP of 1.95.
Then `CCCN(CCOC)c1c(-c2ccccc2Cl)c(Cl)nc2nc(C)nn12` [compound 416], with 3.36; and `C=CC(C)Nc1c(-c2c(F)cc(F)cc2F)c(Cl)nc2nc(C)nn12` (stereo not drawn) [compound 417], with 2.85; and `Cc1nc2nc(Cl)c(-c3c(F)cccc3F)c(N(C)C)n2n1` [compound 418], with 2.37.
The value for `CCNc1c(-c2c(F)cccc2F)c(Cl)nc2nc(C)nn12` [compound 419] was 2.31.

Source of the values: US7186831B2, “5-halo-2-alkyl[1,2,4]triazolo[1,5-a]pyrimidin-7-amines” (priority 2001, dated 2007).
